Experimental data reported in article PMC9664868, “Dephospho-Coenzyme A Kinase Is an Exploitable Drug Target against Plasmodium falciparum: Identification of Selective Inhibitors by High-Throughput Screening of a Large Chemical Compound Library” (Antimicrobial Agents and Chemotherapy, 2022).
“Also recorded” adds a separate entry of the source.

Tests used:
[1] = molecular target: T1, PfDPCK (Plasmodium falciparum, UniProt Q8IL34); assay: Mechanism of PfDPCK inhibition by Lineweaver-Burk plot; assay type: biochemical
Method: In order to understand the mechanism of PfDPCK inhibition of the identified compounds, we independently selected compounds from 359 PfDPCK-specific inhibitor candidates (showing >40% inhibition at 10 μM against PfDPCK), based on the more stringent criteria of >80% inhibition at 10 μM against PfDPCK and <10% inhibition against HsCOASY, to yield 30 hits. The hits were prioritized using a multiparameter optimization (MPO) scoring model, developed by MMV (https://www.optibrium.com/downloads/scoring-profiles/mmv-antimalarial-scoring-profile/) based on calculated physicochemical properties, including molecular weight, logP, hydrogen bond donors and acceptors, rotatable bonds, and structural alerts ([20], [21]). We finally chose six representative compounds (A-15, A-33, and A-69, shown in Table S1, and other three compounds; A-126, A-127, and A-128) by manual inspection with “chemist eye” for chemical attractiveness (druglikeness). […] Furthermore, two compounds, A-33 and A-69, are considered to be pan-assay interference compounds (PAINS) (phenolic Mannich base) ([22]). We consequently focused on two commercially available compounds (A-15 and A-127) (Fig. 6A) and investigated their mechanism of inhibition. We differentiated the type of inhibition by Lineweaver-Burk plot with various concentrations of one substrate (dephospho-CoA or ATP), while the other substrate was given in saturating concentrations in kinetic studies (Fig. 5).
FIG 5 Lineweaver-Burk plots showing inhibition of two compounds, compound A-15 (A, B) and compound A-127 (C, D) on the PfDPCK activity. The enzymatic activities were determined with various concentrations of dephospho-CoA and 200 μM ATP (A, C) or various concentrations of ATP and 200 μM dephospho-CoA (B, D) in the presence of a range of concentrations of inhibitors. Data are shown in means ± SEMs of triplicate.
PfDPCK and HsCOASY activity was measured by quantifying ADP produced in the reaction by a coupling assay using the ADP Hunter Plus assay kit (DiscoverX, USA) according to the manufacturer's instructions. Briefly, enzymatic reactions were carried out in a 20-μL mixture of assay buffer containing 15 mM HEPES, 20 mM NaCl, 1 mM EGTA, 0.02% Tween 20, 10 mM MgCl2, 0.1% bovine gamma globulin, 50 ng of recombinant PfDPCK or HsCOASY, 4 to 256 μM dephospho-CoA, and 5 to 300 μM ATP on a black microplate. All reactions were performed for 2 h, reagents A and B were added, and they were then reincubated for 60 min at 30°C. After reactions were terminated by addition of ADP Hunter Stop solution, the fluorescent signal was measured using SpectraMax Paradigm (Molecular Devices, CA, USA) at excitation and emission wavelengths of 530 and 590 nm, respectively. The kinetic parameters were calculated using the nonlinear regression function using the single saturating concentrations of the substrates by the GraphPad Prism software (GraphPad Software Inc., San Diego, CA). The experiments were repeated three times in triplicate using proteins purified from independent cultures. Kinetic values of enzymes are presented as the means ± standard errors (SEs).

[2] = molecular target: T1, PfDPCK; assay: PfDPCK inhibition, enzyme-coupled fluorescence ADP detection assay (HTS and IC50 determination); assay type: biochemical; conditions: Table 2, PfDPCK inhibitor scaffolds Gr4, Gr5, Gr8; read-out: IC50
Method: High-throughput screening against recombinant PfDPCK was performed using the Drug Discovery Initiative (DDI) full library, available from The University of Tokyo, composed of approximately 210,000 compounds. The primary assay was performed on 1,536-well white plate format with a final volume of 2 μL/well, containing 10 μM test compounds using a Multidrop Combi reagent dispenser (Thermo Fisher Scientific, Waltham, MA). The reaction was conducted in the assay buffer described above with 100 μM ATP and 50 μM dephospho-CoA. The assay was carried out at room temperature for 4 h in a closed plastic container with wet tissues. The reaction was stopped, and produced ADP was quantified using an enzyme-coupled fluorescence ADP detection assay, using PHERAstar microplate reader (BMG Labtech, Offenburg, Germany) with excitation at 540 nm and emission at 590 nm, as previously described ([17]). The inhibition level was calculated as the percentage inhibition of DPCK activity with each compound compared to the activity with only dimethyl sulfoxide (DMSO) as control (no inhibition) and that with no enzyme as 100% inhibition. IC50 values of the hit compounds were determined under the same assay conditions for the screening: Z′ factor, signal-to-background ratio (S/B), signal-to-noise ratio (S/N), and coefficient of variation (CV) were calculated to estimate the quality of screening system as previously described ([18], [38]).
The primary hits were reassayed in quadruplicate (n = 4) as in the primary screening. We next tested the confirmed secondary hits to exclude false positives that inhibit coupled fluorescence assay, but not PfDPCK. After exclusion of false positives, all tertiary hits were tested against human HsCOASY in the counterassay to exclude compounds that inhibit both PfDPCK and HsCOASY. The compounds showing >10% inhibition against HsCOASY were excluded from further studies. The IC50 values of the hit compounds were determined under the same assay conditions described as above for the primary screening, with the serially diluted compounds at 20, 10, 2.5, 0.5, and 0.1 μM at final concentrations. The assay was conducted in quadruplicate for each dilution, and IC50 values were calculated using GraphPad Software (San Diego, California USA).

T1 sequence (Q8IL34 entry or part of it): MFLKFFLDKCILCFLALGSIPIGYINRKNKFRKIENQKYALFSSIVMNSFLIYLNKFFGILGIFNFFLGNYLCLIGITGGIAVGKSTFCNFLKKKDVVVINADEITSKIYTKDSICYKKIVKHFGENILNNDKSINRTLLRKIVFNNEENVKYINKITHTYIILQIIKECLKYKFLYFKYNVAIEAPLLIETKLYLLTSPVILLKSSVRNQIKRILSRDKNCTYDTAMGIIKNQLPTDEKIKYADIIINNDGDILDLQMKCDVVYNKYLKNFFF

Ki ([1]; in respect of ATP, 200 μM dephospho-CoA): 10.4 µM | Ki ([1]; in respect of dephospho-CoA, 200 μM ATP): 0.47 µM | IC50 [2]: 1.93 ± 0.04 µM
SMILES: CC(C)(C)c1cc(C(=O)Cn2c(NCCO)nc3ccccc32)cc(C(C)(C)C)c1O [Compound A-15]
type of inhibition ([1]; in respect of dephospho-CoA and ATP, Lineweaver-Burk plot): competitively inhibits; also recorded: competitive inhibition
